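48-hour exposure; five concentrations; linearly interpolated endpoints. Here, GI50 denotes the concentration required for 50% inhibition of growth.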 The source made the active and inactive calls. Cut-off read from the data, not from the text of the source: active = GI50 up to about 1.1 µM and inactive = higher.
Key:
Assay in all cases: NCI tumour cell line growth inhibition, 48 h
[1] = tested on: BT-549
[2] = tested on: DU-145
[3] = tested on: HCT-116
[4] = tested on: HOP-62
[5] = tested on: HOP-92
[6] = tested on: Hs-578T
[7] = tested on: K562
[8] = tested on: MCF7
[9] = tested on: MDA-N
[10] = tested on: Malme-3M
[11] = tested on: NCI/ADR-RES
[12] = tested on: OVCAR-3
[13] = tested on: RPMI-8226
[14] = tested on: RXF 393
[15] = tested on: SF-539
[16] = tested on: SK-MEL-5
[17] = tested on: SK-OV-3
[18] = tested on: SNB-75
[19] = tested on: U-251
[20] = tested on: UACC-62

Measured: GI50

O=C(O)CNCP(=O)(O)O [GLYPHOSATE]
inactive: [1] > 100 µM | [2] > 100 µM | [3] > 100 µM | [4] > 100 µM | [5] > 100 µM | [6] > 100 µM | [7] > 100 µM | [8] > 100 µM | [9] > 100 µM | [10] > 100 µM | [11] > 100 µM | [12] > 100 µM | [13] > 100 µM | [14] > 100 µM | [15] > 100 µM | [16] > 100 µM | [17] > 100 µM | [18] > 100 µM | [19] > 100 µM | [20] > 100 µM
